Data from article PMC3700073, “Synthesis and Biological Activity of New Thiopyrano[2,3-d]thiazoles Containing a Naphthoquinone Moiety” (Scientia Pharmaceutica, 2013).
Like-named read-outs stand apart in the source and are kept apart here.

Assays:
[1] = system: CCRF-CEM (leukemia); test: NCI five-dose assay; assay type: cell-based; conditions: Homo sapiens
[2] = system: K-562 (leukemia); test: NCI five-dose assay; assay type: cell-based; conditions: Homo sapiens, K562, K-562, leukemia
[3] = system: MOLT-4 (leukemia); test: NCI five-dose assay; assay type: cell-based; conditions: Homo sapiens, MOLT-4, MOLT-4, leukemia
[4] = system: RPMI-8226 (leukemia); test: NCI five-dose assay; assay type: cell-based; conditions: Homo sapiens, RPMI-8226, RPMI-8226, leukemia
[5] = system: A549/ATCC (NSCL cancer); test: NCI five-dose assay; assay type: cell-based; conditions: Homo sapiens
[6] = system: EKVX (NSCL cancer); test: NCI five-dose assay; assay type: cell-based; conditions: Homo sapiens
[7] = system: HOP-92 (NSCL cancer); test: NCI five-dose assay; assay type: cell-based; conditions: Homo sapiens, HOP-92, HOP-92, NSCL cancer
[8] = system: NCI-H226 (NSCL cancer); test: NCI five-dose assay; assay type: cell-based; conditions: Homo sapiens
[9] = system: NCI-H23 (NSCL cancer); test: NCI five-dose assay; assay type: cell-based; conditions: Homo sapiens
[10] = system: NCI-H322M (NSCL cancer); test: NCI five-dose assay; assay type: cell-based; conditions: Homo sapiens
[11] = system: LOX IMVI (melanoma); test: NCI five-dose assay; assay type: cell-based; conditions: Homo sapiens
[12] = system: MALME-3M (melanoma); test: NCI five-dose assay; assay type: cell-based; conditions: Homo sapiens
[13] = system: SK-MEL-2 (melanoma); test: NCI five-dose assay; assay type: cell-based; conditions: Homo sapiens, SK-MEL-2, SK-MEL-2, melanoma
[14] = system: SK-MEL-28 (melanoma); test: NCI five-dose assay; assay type: cell-based; conditions: Homo sapiens, SK-MEL-28, SK-MEL-28, melanoma
[15] = system: MCF-7 (breast cancer); test: NCI five-dose assay; assay type: cell-based; conditions: Homo sapiens, MCF7, MCF-7, breast cancer
[16] = system: NCI/ADR-RES (breast cancer); test: NCI five-dose assay; assay type: cell-based; conditions: Homo sapiens
[17] = system: HS 578T (breast cancer); test: NCI five-dose assay; assay type: cell-based, human; conditions: Homo sapiens, Hs-578T, HS 578T, breast cancer
[18] = system: SF-268 (CNS cancer); test: NCI five-dose assay; assay type: cell-based; conditions: Homo sapiens, SF-268, SF-268, CNS cancer
[19] = system: SF-295 (CNS cancer); test: NCI five-dose assay; assay type: cell-based; conditions: Homo sapiens, SF-295, SF-295, CNS cancer
[20] = system: SF-539 (CNS cancer); test: NCI five-dose assay; assay type: cell-based; conditions: Homo sapiens, SF-539, SF-539, CNS cancer
[21] = system: SNB-19 (CNS cancer); test: NCI five-dose assay; assay type: cell-based; conditions: Homo sapiens, SNB-19, SNB-19, CNS cancer
[22] = system: SNB-75 (CNS cancer); test: NCI five-dose assay; assay type: cell-based; conditions: Homo sapiens, SNB-75, SNB-75, CNS cancer
[23] = system: U251 (CNS cancer); test: NCI five-dose assay; assay type: cell-based; conditions: Homo sapiens, U-251, U251, CNS cancer
[24] = system: OVCAR-5 (ovarian cancer); test: NCI five-dose assay; assay type: cell-based; conditions: Homo sapiens, OVCAR-5, OVCAR-5, ovarian cancer
[25] = system: OVCAR-8 (ovarian cancer); test: NCI five-dose assay; assay type: cell-based; conditions: Homo sapiens, OVCAR-8, OVCAR-8, ovarian cancer
[26] = system: SK-OV-3 (ovarian cancer); test: NCI five-dose assay; assay type: cell-based; conditions: Homo sapiens, SK-OV-3, SK-OV-3, ovarian cancer
[27] = system: ACHN (renal cancer); test: NCI five-dose assay; assay type: cell-based; conditions: Homo sapiens
[28] = system: RXF-393 (renal cancer); test: NCI five-dose assay; assay type: cell-based; conditions: Homo sapiens
[29] = system: HCT-116 (colon cancer); test: NCI five-dose assay; assay type: cell-based; conditions: Homo sapiens, HCT-116, HCT-116, colon cancer
[30] = system: HCT-15 (colon cancer); test: NCI five-dose assay; assay type: cell-based; conditions: Homo sapiens, HCT-15, HCT-15, colon cancer
[31] = system: HT29 (colon cancer); test: NCI five-dose assay; assay type: cell-based; conditions: Homo sapiens, HT-29, HT29, colon cancer
[32] = system: KM12 (colon cancer); test: NCI five-dose assay; assay type: cell-based; conditions: Homo sapiens
[33] = system: SW-620 (colon cancer); test: NCI five-dose assay; assay type: cell-based; conditions: Homo sapiens, SW-620, SW-620, colon cancer
[34] = system: male mice; test: Acute toxicity in vivo, median lethal dose; conditions: intraperitoneal, approximate LD50 (Litchfield and Wilcoxon)
Method: The synthesized compounds were evaluated for their approximate LD50 in male mice. The mice were kept under a constant temperature and humidity in sterile cages with water and food. The stock solutions of the compounds used in this study were prepared immediately before usage and injected intraperitoneally (ip). The LD50 values (Tab. 3) were calculated using the method described by Litchfield and Wilcoxon.
The median lethal dose (LD50), the dose of the selected compounds that causes 50% mortality in mice, was determined from dose–response curves with at least four doses by the method of Litchfield and Wilcoxon.

[35] = system: 60 cancer cell lines; conditions: over the cell line panel
[36] = system: 60 cancer cell lines; test: cells; conditions: Homo sapiens

`COc1cc(C2C3=C(Sc4[nH]c(=O)sc42)C(=O)c2ccccc2C3=O)ccc1OCc1ccccc1` (stereo not drawn) [Compound 4e, 11-[4-(Benzyloxy)-3-methoxyphenyl]-3,11-dihydro-2H-benzo[6,7]thiochromeno[2,3-d]-[1,3]thiazole-2,5,10-trione] showed a GI50 [1] of 23.4 µM, a GI50 [2] of 19.4 µM and a GI50 [3] of 17.3 µM. The GI50 [4] was 14.5 µM, the GI50 [5] was 3.16 µM and the GI50 [6] was 16.3 µM. For the same compound, the GI50 [7] was 11.5 µM, the GI50 [8] was 19.2 µM and the GI50 [9] was 3.99 µM. It also gave a GI50 [10] of 10.9 µM, a GI50 [11] of 8.03 µM and a GI50 [12] of 7.12 µM. The GI50 [13] was 20.3 µM, the GI50 [14] was 12.2 µM and the GI50 [15] was 12.9 µM. It also gave a GI50 [16] of 22.7 µM, a GI50 [17] of 4.52 µM and a GI50 [18] of 14.1 µM. The GI50 [19] was 5.78 µM, the GI50 [20] was 16.7 µM and the GI50 [21] was 11.3 µM. The GI50 [22] was 7.76 µM, the GI50 [23] was 15.1 µM and the GI50 [24] was 32.1 µM. For the same compound, the GI50 [25] was 13.9 µM, the GI50 [26] was 31.7 µM and the GI50 [27] was 17.8 µM. For the same compound, the GI50 [28] was 6.98 µM, the GI50 [29] was 15.6 µM and the GI50 [30] was 11.5 µM. For the same compound, the GI50 [31] was 11.2 µM, the GI50 [32] was 16.9 µM and the GI50 [33] was 22.7 µM. The LD50ip [34] was greater than 1000 mg/kg, the “TGI MG_MID” value [35] was 40.74 µM and the GI50 ([36]; read-out: GI50 MG_MID, over the cell line panel) was 12 µM. It also gave a GI50 ([36]; read-out: GI50 Range (min – max), over the cell line panel) of 2.62 to 32.6 µM, a CC50 ([36]; read-out: LC50 MG_MID, over the cell line panel) of 85.1 µM and a CC50 ([36]; read-out: LC50 Range (min – max), over the cell line panel) of 26.3 to 98.7 µM.
